Reference: patent US20230131535A1, “ARYLMETHYLENE AROMATIC COMPOUNDS AS Kv1.3 POTASSIUM SHAKER CHANNEL BLOCKERS” (D. E. Shaw Research, LLC, priority 2019, published 2023)
Where two headings read alike, the source gives them in different places.

Assays:
[1] = molecular target: T1, hERG channel (Homo sapiens, UniProt Q12809); test: hERG electrophysiology, automated whole-cell patch clamp (Patchliner); format: cell-based; conditions: Table 6; CHO-K1 cells stably expressing hERG; whole cell current, tail current protocol; read-out: hERG_IC50
T1 construct: expressed in transfected cells
T1 sequence (Q12809 whole entry): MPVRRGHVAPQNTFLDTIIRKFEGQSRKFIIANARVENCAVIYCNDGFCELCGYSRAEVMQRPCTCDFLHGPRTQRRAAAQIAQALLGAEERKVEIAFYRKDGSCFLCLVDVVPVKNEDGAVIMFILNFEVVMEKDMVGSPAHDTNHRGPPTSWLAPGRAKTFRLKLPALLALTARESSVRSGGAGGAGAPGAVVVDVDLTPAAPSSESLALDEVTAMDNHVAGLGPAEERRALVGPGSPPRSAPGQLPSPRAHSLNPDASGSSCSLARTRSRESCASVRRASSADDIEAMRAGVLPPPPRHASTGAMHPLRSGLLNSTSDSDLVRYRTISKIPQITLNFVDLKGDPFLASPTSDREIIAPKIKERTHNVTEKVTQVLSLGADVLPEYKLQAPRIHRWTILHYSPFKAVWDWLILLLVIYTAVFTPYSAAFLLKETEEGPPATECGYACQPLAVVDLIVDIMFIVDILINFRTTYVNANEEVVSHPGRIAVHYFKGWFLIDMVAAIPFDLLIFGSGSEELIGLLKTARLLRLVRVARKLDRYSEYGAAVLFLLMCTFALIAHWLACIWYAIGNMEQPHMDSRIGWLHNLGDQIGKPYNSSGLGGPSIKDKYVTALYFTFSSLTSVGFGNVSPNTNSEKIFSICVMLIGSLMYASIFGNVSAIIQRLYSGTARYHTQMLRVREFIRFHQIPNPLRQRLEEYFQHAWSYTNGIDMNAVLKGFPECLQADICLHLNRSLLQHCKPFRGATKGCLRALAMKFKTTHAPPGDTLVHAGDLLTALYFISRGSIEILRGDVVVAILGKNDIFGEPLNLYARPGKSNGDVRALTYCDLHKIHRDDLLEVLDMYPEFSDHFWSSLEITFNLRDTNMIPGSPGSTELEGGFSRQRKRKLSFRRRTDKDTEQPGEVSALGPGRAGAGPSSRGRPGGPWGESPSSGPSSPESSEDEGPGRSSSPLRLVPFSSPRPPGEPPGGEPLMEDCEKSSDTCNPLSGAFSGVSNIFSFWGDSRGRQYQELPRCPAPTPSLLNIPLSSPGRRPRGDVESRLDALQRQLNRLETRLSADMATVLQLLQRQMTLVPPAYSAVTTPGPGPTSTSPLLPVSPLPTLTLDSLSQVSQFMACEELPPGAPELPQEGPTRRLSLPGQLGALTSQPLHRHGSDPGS
Method: Example 68. Evaluation of hERG Activities
This assay is used to evaluate the disclosed compounds' inhibition activities against the hERG channel.
CHO-K1 cells stably expressing hERG were grown in Ham's F-12 Medium with Glutamine containing 10% heat-inactivated FBS, 1% Penicillin/Streptomycin, Hygromycin (100 μg/ml) and G418 (100 μg/ml). Cells were grown in culture flasks at 37° C. in a 5% CO2-humidified incubator.
(§1) The cells were bathed in an extracellular solution containing 140 mM NaCl, 4 mM KCl, 2 mM CaCl2), 1 mM MgCl2, 5 mM Glucose, 10 mM HEPES; pH adjusted to 7.4 with NaOH; 295-305 mOsm. The internal solution contained 50 mM KCl, 10 mM NaCl, 60 mM KF, 20 mM EGTA, 10 mM HEPES; pH adjusted to 7.2 with KOH; 285 mOsm. All compounds were dissolved in DMSO at 30 mM. Compound stock solutions were freshly diluted with external solution to concentrations of 30 nM, 100 nM, 300 nM, 1 μM, 3 μM, 10 μM, 30 μM and 100 μM. The highest content of DMSO (0.3%) was present in 100 μM.
The voltage protocol (see Table 5) was designed to simulate voltage changes during a cardiac action potential with a 300 ms depolarization to +20 mV (analogous to the plateau phase of the cardiac action potential), a repolarization for 300 ms to −50 mV (inducing a tail current) and a final step to the holding potential of −80 mV. The pulse frequency was 0.3 Hz. Control (compound-free) and compound pulse trains for each compound concentration applied contained 70 pulses.
Whole cell current recordings and compound application were enabled by means of an automated patch clamp platform Patchliner (Nanion). EPC 10 patch clamp amplifier (HEKA) along with Patchmaster software (HEKA Elektronik Dr. Schulze GmbH) was used for data acquisition. Data were sampled at 10 kHz without filtering. Increasing compound concentrations were applied consecutively to the same cell without washouts in between.
(§2) AUC and PEAK values were obtained with Patchmaster (HEKA Elektronik Dr. Schulze GmbH). To determine IC50 the last single pulse in the pulse train corresponding to a given compound concentration was used. Obtained AUC and PEAK values in the presence of compound were normalized to control values in the absence of compound. Using Origin (OridinLab), IC50 was derived from data fit to Hill equation: Icompound/Icontrol=(100−A)/(1+([compound]/IC50)nH)+A, where IC50 is the concentration at which current inhibition is half-maximal, [compound] is the applied compound concentration, A is the fraction of current that is not blocked and nH is the Hill coefficient.

[2] = molecular target: T2, Kv1.3 potassium channel (Homo sapiens, UniProt P22001); test: Kv1.3 potassium channel blocker activity, automated whole-cell patch clamp (Patchliner); format: cell-based; conditions: CHO-K1 cells stably expressing Kv1.3, whole cell current, pulses -90 mV to +40 mV, read-out: Kv1.3_IC50
T2 construct: expressed in transfected cells
T2 sequence (P22001 whole entry): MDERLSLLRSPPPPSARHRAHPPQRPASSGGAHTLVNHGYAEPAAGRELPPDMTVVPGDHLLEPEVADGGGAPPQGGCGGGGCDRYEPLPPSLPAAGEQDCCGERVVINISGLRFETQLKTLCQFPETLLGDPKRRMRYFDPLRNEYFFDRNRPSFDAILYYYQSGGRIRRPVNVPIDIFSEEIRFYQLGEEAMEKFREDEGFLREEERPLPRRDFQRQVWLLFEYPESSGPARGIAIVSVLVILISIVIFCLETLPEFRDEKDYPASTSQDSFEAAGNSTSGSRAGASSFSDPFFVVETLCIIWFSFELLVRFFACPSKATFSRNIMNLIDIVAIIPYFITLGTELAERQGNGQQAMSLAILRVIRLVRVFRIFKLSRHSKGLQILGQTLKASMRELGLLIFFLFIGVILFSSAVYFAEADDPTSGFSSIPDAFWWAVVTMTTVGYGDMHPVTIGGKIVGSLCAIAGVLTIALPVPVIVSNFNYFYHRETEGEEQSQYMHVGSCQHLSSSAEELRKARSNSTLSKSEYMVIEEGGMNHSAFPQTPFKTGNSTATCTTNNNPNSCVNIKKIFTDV
Method: Example 67. Evaluation of Kv1.3 Potassium Channel Blocker Activities
The assay described below is used to evaluate the disclosed compound's activities as Kv1.3 potassium channel blockers.
CHO-K1 cells stably expressing Kv1.3 were grown in DMEM containing 10% heat-inactivated FBS, 1 mM Sodium Pyruvate, 2 mM L-Glutamine and G418 (500 μg/ml). Cells were grown in culture flasks at 37° C. in a 5% CO2-humidified incubator.
as §1
The currents were evoked by applying 100 ms depolarizing pulses from −90 mV (holding potential) to +40 mV were applied with 0.1 Hz frequency. Control (compound-free) and compound pulse trains for each compound concentration applied contained 20 pulses. 10 second breaks were used between pulse trains (see Table 4 below).
Whole cell current recordings and compound application were enabled by means of an automated patch clamp platform Patchliner (Nanion Technologies GmbH). EPC 10 patch clamp amplifier (HIEKA Elektronik Dr. Schulze GmbH) along with Patchmaster software (HIEKA Elektronik Dr. Schulze GmbH) was used for data acquisition. Data were sampled at 10 kHz without filtering. Passive leak currents were subtracted online using a P/4 procedure (HEKA Elektronik Dr. Schulze GmbH). Increasing compound concentrations were applied consecutively to the same cell without washouts in between. Total compound incubation time before the next pulse train was not longer than 10 seconds. Peak current inhibition was observed during compound equilibration.
as §2, with “AUC and peak values were” for “AUC and PEAK values were”, “To determine IC50, the last” for “To determine IC50 the last”, “AUC and peak values in” for “AUC and PEAK values in”, “where IC50 value is the” for “where IC50 is the”

Row | IC50 ([2]; Table 6) [µM] | IC50 ([2]; Table 7) [µM] | SMILES | IC50 [1] [µM]
1 | < 1 | – | Cc1cnccc1C(O)c1c(O)ccc(Cl)c1Cl (stereo not shown) [Compound 39, 3,4-dichloro-2-[hydroxy(3-methylpyridin-4-yl)methyl]phenol] | > 30
2 | < 1 | – | O=C(NC(c1ccncc1)c1c(O)ccc(Cl)c1Cl)C1CNC1 (single isomer, unassigned) [Compound 50, N-[(2,3-dichloro-6-hydroxyphenyl)(pyridin-4-yl)methyl]azetidine-3-carboxamide] | > 30
3 | < 1 | – | Oc1ccc(Cl)c(Cl)c1C(O)c1ccncc1 (single isomer, unassigned) [Compound 37, 3,4-dichloro-2-(hydroxy(pyridin-4-yl)methyl)phenol] | > 30
4 | < 1 | – | O=C(NC(c1ccncc1)c1c(O)ccc(Cl)c1Cl)C1CNC1 (stereo not shown) [Compound 42, N-[(2,3-dichloro-6-hydroxyphenyl)(pyridin-4-yl)methyl]azetidine-3-carboxamide] | > 30
5 | < 1 | – | CN1CC(C(=O)NC(c2ccncc2)c2c(O)ccc(Cl)c2Cl)C1 (stereo not shown) [Compound 73, N-[(2,3-dichloro-6-hydroxyphenyl)(pyridin-4-yl)methyl]-1-methylazetidine-3-carboxamide] | > 30
6 | < 1 | – | NCc1cc(C(O)c2c(O)ccc(Cl)c2Cl)ccn1 (single isomer, unassigned) [Compound 53, 2-((2-(aminomethyl)pyridin-4-yl)(hydroxy)methyl)-3,4-dichlorophenol] | > 30
7 | < 1 | – | CN1CC(C(=O)NC(c2ccncc2)c2c(O)ccc(Cl)c2Cl)C1 (single isomer, unassigned) [Compound 72, N-[(2,3-dichloro-6-hydroxyphenyl)(pyridin-4-yl)methyl]-1-methylazetidine-3-carboxamide] | –
8 | < 30 | – | CN(C(=O)C1CNC1)C(c1ccncc1)c1c(O)ccc(Cl)c1Cl (stereo not shown) [Compound 71, N-[(2,3-dichloro-6-hydroxyphenyl)(pyridin-4-yl)methyl]-N-methylazetidine-3-carboxamide] | –
9 | < 30 | – | NCc1cc(C(O)c2c(O)ccc(Cl)c2Cl)ccn1 (single isomer, unassigned) [Compound 47, 2-((2-(aminomethyl)pyridin-4-yl)(hydroxy)methyl)-3,4-dichlorophenol] | –
10 | < 10 | – | CN1CC(C(=O)NC(c2ccncc2)c2c(O)ccc(Cl)c2Cl)C1 (single isomer, unassigned) [Compound 75, N-[(2,3-dichloro-6-hydroxyphenyl)(pyridin-4-yl)methyl]-1-methylazetidine-3-carboxamide] | –
11 | < 10 | – | O=C(NC(c1ccncc1)c1c(O)ccc(Cl)c1Cl)C1CNC1 (single isomer, unassigned) [Compound 49, N-[(2,3-dichloro-6-hydroxyphenyl)(pyridin-4-yl)methyl]azetidine-3-carboxamide] | –
12 | < 30 | – | Cn1cc(C(c2ccncc2)c2c(O)ccc(Cl)c2Cl)cn1 (stereo not shown) [Compound 74, 3,4-dichloro-2-[(1-methyl-1H-pyrazol-4-yl)(pyridin-4-yl)methyl]phenol] | –
13 | < 10 | – | N#Cc1cc(C(O)c2c(O)ccc(Cl)c2Cl)ccn1 (stereo not shown) [Compound 30, 4-[(2,3-dichloro-6-hydroxyphenyl)(hydroxy)methyl]pyridine-2-carbonitrile] | –
14 | < 10 | – | Cc1cc(C(O)c2c(O)ccc(Cl)c2Cl)ccn1 (stereo not shown) [Compound 35, 3,4-dichloro-2-[hydroxy(2-methylpyridin-4-yl)methyl]phenol] | –
15 | < 30 | – | O=C(N[C@H](c1ccncc1)c1c(O)ccc(Cl)c1Cl)[C@H]1CCCN1 (single isomer, unassigned) [Compound 66] | –

Continued, compound first:

Row | SMILES | IC50 ([2]; Table 6) [µM] | IC50 ([2]; Table 7) [µM] | IC50 [1] [µM]
16 | O=C(NC(c1ccncc1)c1cc(Cl)c(Cl)cc1O)C1CNC1 (stereo not shown) [Compound 26, N-[(4,5-dichloro-2-hydroxyphenyl)(pyridin-4-yl)methyl]azetidine-3-carboxamide] | < 1 | – | > 30
17 | NC(c1ccncc1)c1cc(Cl)c(Cl)cc1O (stereo not shown) [Compound 6, 2-[amino(pyridin-4-yl)methyl]-4,5-dichlorophenol] | < 10 | – | > 30
18 | Oc1cc(Cl)c(Cl)cc1Cc1ccncc1 [Compound 1, 2-[(pyridin-4-yl)methyl]-4,5-dichlorophenol] | < 10 | – | > 30
19 | NC(=O)c1ccc(C(O)c2c(O)ccc(Cl)c2Cl)cc1 (stereo not shown) [Compound 64, 4-[(2,3-dichloro-6-hydroxyphenyl)(hydroxy)methyl]benzamide] | < 1 | – | > 30
20 | Oc1ccc(Cl)c(Cl)c1C(O)c1ccc2[nH]ccc2c1 (stereo not shown) [Compound 52, 3,4-dichloro-2-[hydroxy(1H-indol-5-yl)methyl]phenol] | < 30 | – | –
21 | Nc1ccc(C(N)c2cc(Cl)c(Cl)cc2O)cn1 (stereo not shown) [Compound 12, 2-[amino(6-aminopyridin-3-yl)methyl]-4,5-dichlorophenol] | < 10 | – | –
22 | Cc1cc(O)c([C@@H](N)CNC(=O)C2CNC2)cc1Cl [Compound 95, N-[(2R)-2-amino-2-(5-chloro-2-hydroxy-4-methylphenyl)ethyl] azetidine-3-carboxamide] | – | < 10 | –
23 | C[C@H](NC(=O)CO)c1c(O)ccc(Cl)c1Cl [Compound 83, N-[(1S)-1-(2,3-dichloro-6-hydroxyphenyl)ethyl]-2-hydroxyacetamide] | – | < 10 | –
24 | Oc1ccc(Cl)c(Cl)c1C(O)c1cccc2[nH]ccc12 (stereo not shown) [Compound 51, 3,4-dichloro-2-[hydroxy(1H-indol-4-yl)methyl]phenol] | < 10 | – | –
25 | Oc1ccc2ccccc2c1C(O)c1ccncc1 (stereo not shown) [Compound 32, 1-[hydroxyl(pyridin-4-yl)methyl]naphthalen-2-ol] | < 10 | – | –
26 | Cc1cc(O)c(C(N)CNC(=O)CO)cc1Cl (stereo not shown) [Compound 96, N-[2-amino-2-(5-chloro-2-hydroxy-4-methylphenyl)ethyl]-hydroxyacetamide] | – | < 10 | –
27 | NC(c1cn[nH]c1)c1c(O)ccc(Cl)c1Cl (stereo not shown) [Compound 7, 2-[amino(1H-pyrazol-4-yl)methyl]-3,4-dichlorophenol] | < 30 | – | –
28 | Oc1ccc(Cl)c(Cl)c1C(O)c1cn[nH]c1 (stereo not shown) [Compound 56, 3,4-dichloro-2-[hydroxy(1H-pyrazol-4-yl)methyl]phenol] | < 10 | – | –
29 | NC(=O)c1cc(Cc2c(O)ccc(Cl)c2Cl)ccn1 [Compound 24, 4-[(2,3-dichloro-6-hydroxyphenyl)methyl]pyridine-2-carboxamide] | < 10 | – | –
30 | C[C@@H](NC(=O)[C@@H]1CCCNC1)c1c(O)ccc(Cl)c1Cl [Compound 79, (3R)-N-[(1R)-1-(2,3-dichloro-6-hydroxyphenyl)ethyl]piperidine-3-carboxamide] | – | < 10 | –
